{"source": "patent US8779006B2", "about": "“Compositions and methods for treatment and prevention of osteoarthritis” (Nucitec S.A. de C.V., priority 2007, dated 2014)", "key": {"[1]": {"system": "patients with OA of the knee", "experiment": "Example 2 randomized double-blind active-controlled study: Lequesne's functional index", "format": "in vivo, human", "protocol": "(§1) This was a 16-week, randomized, double-blind, active-controlled, parallel-group study. The study received Ethics Committee approval, was performed in accordance with the ICH Harmonized Guidelines for Good clinical Practice (GPC) and the Declaration of Helsinki. All patients provided written, informed consent before the start of the study.\n(§2) 117 patients with OA of the knee (according to the American College of Rheumatology criteria) were included in the study. Patients were enrolled by public advertising and were studied at the San Jose Hospital in Queretaro, México. Entry criteria included: willingness to participate in the study, male and female patients aged at least 40 years of age with symptomatic evidence of OA in the knee for at least 1 year, radiographic evidence of Kellgren and Lawrence grade II to IV OA of the knee, and no intra-articular injection of corticosteroids within the last 3 months. Patients were excluded if they had: any history of adverse reaction to the study drugs, current pregnancy status, uncontrolled hypertension, active infection, undergone surgery/arthroscopy within three months, diagnosis of radiographic OA of Kellgren and Lawrence grade I.\n(§3) Participants were assessed in-person during 6 visits conducted at monthly intervals. After giving written informed consent (visit #1), patients were screened and selected according to the predetermined criteria. Visit #2 was the baseline assessment. During this visit selected patients were assigned a unique patient identification number and randomized to receive 1 intra-articular monthly injection (10 mL) of Kondrium™, Kondrium™-F or methylprednisolone (80 mg) 1 month apart during the next 3 months (visits 3, 4 and 5). Visit #3, #4 and #5 served as a midpoint assessment and visit #6 was the final assessment corresponding to the end of the intervention period of the study. Kondrium™ is an aqueous formulation that contains 6.75% (w/v) sodium bicarbonate and 0.75% (w/v) calcium gluconate. Kondrium™-F is an aqueous formulation that contains 6.75% (w/v) sodium bicarbonate and 1.5% (w/v) calcium gluconate.\n(§4) The primary efficacy variable was the change from the baseline to final assessment in the Western Ontario and McMastern University OA index (WOMAC subscale score for pain), and Lequesne's functional index.\n(§5) Data analysis was performed using SPSS for Windows version 10.0. Baseline demographic variables and compliance were analyzed by means of the χ^2 test. A univariate analysis of variance (ANOVA) was used to determine whether the three treatment groups differed in mean values of change from a baseline in WOMAC and Lequesne's functional index. Treatment effect is shown as the main effect controlled by the baseline values. Pairwise comparisons between treatments were done with the LSD test. All statistical tests were performed at the 0.05 level of significance."}, "[2]": {"system": "patients with OA of the knee", "experiment": "Example 2 randomized double-blind active-controlled study: WOMAC index", "format": "in vivo, human", "protocol": "as §1, §2, §3, §4, §5"}, "[3]": {"settings": "after 4 months of treatment, monthly intra-articular injection"}}}
{"smiles": "C[C@H]1C[C@@H]2[C@H]([C@@H](O)C[C@@]3(C)[C@H]2CC[C@]3(O)C(=O)CO)[C@@]2(C)C=CC(=O)C=C12", "note": "[Methylprednisolone, methylprednisolone]", "values": [{"measurement": "Lequesne functional index Maximum Walking Distance, change, mean", "setting": "[1]; [3]", "value": "−0.75"}, {"measurement": "Lequesne functional index Maximum Walking Distance, final, mean", "setting": "[1]; [3]", "value": 2.90}, {"measurement": "Lequesne functional index Normal activities, change, mean", "setting": "[1]; [3]", "value": "−2.80"}, {"measurement": "Lequesne functional index Normal activities, final, mean", "setting": "[1]; [3]", "value": 4.62}, {"measurement": "Lequesne functional index Pain, change, mean", "setting": "[1]; [3]", "value": "−1.96"}, {"measurement": "Lequesne functional index Pain, final, mean", "setting": "[1]; [3]", "value": 2.86}, {"measurement": "Lequesne functional index Maximum Walking Distance, baseline, mean", "setting": "[1]; before treatment", "value": 3.24}, {"measurement": "Lequesne functional index Normal activities, baseline, mean", "setting": "[1]; before treatment", "value": 6.93}, {"measurement": "Lequesne functional index Pain, baseline, mean", "setting": "[1]; before treatment", "value": 4.34}, {"measurement": "mean change in the Lequesne's functional index", "setting": "[1]; end of study vs baseline", "value": "−5.2"}, {"measurement": "WOMAC Pain, change, mean", "setting": "[2]; [3]", "value": "−2.76"}, {"measurement": "WOMAC Pain, final, mean", "setting": "[2]; [3]", "value": 2.57}, {"measurement": "WOMAC Physical functioning, change, mean", "setting": "[2]; [3]", "value": "−7.34"}, {"measurement": "WOMAC Physical functioning, final, mean", "setting": "[2]; [3]", "value": 8.19}, {"measurement": "WOMAC Stiffness, change, mean", "setting": "[2]; [3]", "value": "−2.42"}, {"measurement": "WOMAC Stiffness, final, mean", "setting": "[2]; [3]", "value": 2.77}, {"measurement": "WOMAC Pain, baseline, mean", "setting": "[2]; before treatment", "value": 4.72}, {"measurement": "WOMAC Physical functioning, baseline, mean", "setting": "[2]; before treatment", "value": 14.47}, {"measurement": "WOMAC Stiffness, baseline, mean", "setting": "[2]; before treatment", "value": 4.79}]}
